# Laboratory results taken from publication PMC6811774, “Potent, selective, and subunit‐dependent activation of TRPC5 channels by a xanthine derivative” (British Journal of Pharmacology, 2019).
# Target: T1, TRPC4-SYFP2 (TRPC4:C4 channels) (Homo sapiens, UniProt Q9UBN4)
# T1 construct: expressed in transfected cells
# T1 sequence (Q9UBN4 1-893 isoform Q9UBN4-2): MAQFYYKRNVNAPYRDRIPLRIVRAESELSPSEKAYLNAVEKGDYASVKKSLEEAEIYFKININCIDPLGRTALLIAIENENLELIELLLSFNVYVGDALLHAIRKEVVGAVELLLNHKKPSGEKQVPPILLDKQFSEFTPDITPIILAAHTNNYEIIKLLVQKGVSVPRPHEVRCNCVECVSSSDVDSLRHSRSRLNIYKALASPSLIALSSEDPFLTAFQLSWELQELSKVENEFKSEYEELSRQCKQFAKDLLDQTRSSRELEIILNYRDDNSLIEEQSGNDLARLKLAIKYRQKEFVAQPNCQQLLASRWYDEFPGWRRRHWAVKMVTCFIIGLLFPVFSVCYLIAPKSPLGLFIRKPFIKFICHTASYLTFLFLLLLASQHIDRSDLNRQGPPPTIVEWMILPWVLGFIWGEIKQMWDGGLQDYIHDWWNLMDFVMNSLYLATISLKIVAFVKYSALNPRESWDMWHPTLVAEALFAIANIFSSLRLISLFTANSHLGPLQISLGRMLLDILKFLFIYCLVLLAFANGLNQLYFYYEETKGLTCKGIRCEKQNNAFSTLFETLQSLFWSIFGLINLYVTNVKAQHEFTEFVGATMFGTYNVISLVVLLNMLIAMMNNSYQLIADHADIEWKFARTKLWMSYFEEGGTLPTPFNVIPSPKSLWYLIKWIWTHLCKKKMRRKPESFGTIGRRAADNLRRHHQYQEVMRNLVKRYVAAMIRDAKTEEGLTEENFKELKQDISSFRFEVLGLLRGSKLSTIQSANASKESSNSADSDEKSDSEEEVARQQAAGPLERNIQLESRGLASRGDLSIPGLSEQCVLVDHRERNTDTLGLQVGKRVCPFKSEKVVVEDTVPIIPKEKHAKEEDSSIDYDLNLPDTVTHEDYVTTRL
# Test: [Ca2+]i measurement in (Tet+) HEK T-REx cells expressing hTRPC4-SYFP2
# Type: cell-based
# Text: To facilitate cloning of TRPC5‐SYFP2 and TRPC4‐SYFP2, a pcDNA™4/TO expression vector (ThermoFisher Scientific, Waltham, MA, USA), into which a four amino acid linker (ASAS) flanked by AgeI and SacII restriction sites had been introduced between EcoRI and XhoI restriction sites, was used (Naylor et al., 2016). Human TRPC4β was inserted between BamHI and AgeI restriction sites as described previously (Ludlow et al., 2017). Human TRPC5 (forward primer: 5′ GCTTGGTACCGCCACCATG 3′ and reverse primer: 5′ […] 3′) was inserted upstream of the linker between KpnI and AgeI restriction sites using hTRPC5/pcDNA™4/TO (Zeng et al., 2004) as a PCR template. Both constructs contained an N‐terminal Kozak sequence. SYFP2 was inserted downstream of the linker between SacII and XbaI restriction sites using pSYFP2‐C1 as a PCR template (forward primer, 5′ […] 3′; reverse primer, 5′ […] 3′). pSYFP2‐C1 was a gift from Dorus Gadella (Addgene plasmid #22878; http://n2t.net/addgene:22878; RRID:Addgene_22878; Kremers, Goedhart, van Munster, & Gadella, 2006). Plasmids were sequenced to verify identity.
# HEK T‐REx™ cell line was transfected with TRPC5‐SYFP2 or TRPC4‐SYFP2 using FuGENE® HD transfection reagent. After 48 hr, cells were put under antibiotic selection using 400 μg·ml^−1 zeocin and 10 μg·ml^−1 blasticidin S (Invivogen, San Diego, California, USA). Medium changes were carried out regularly to remove dead cells. HEK T‐REx cells expressing tetracycline‐inducible human TRPC5, TRPC4–C1, and TRPC5–C1 were created as described previously (Akbulut et al., 2015; Ludlow et al., 2017; Rubaiy, Ludlow, Henrot, et al., 2017). TRPC5–C1 and TRPC4–C1 concatemers allow expression of functional channels with defined 2:2 stoichiometry that display ion permeability and current–voltage relationships distinct from those of homomeric TRPC4:C4 or TRPC5:C5 channels and consistent with those obtained upon co‐expression of TRPC1 with TRPC4 or TRPC5 (Ludlow et al., 2017; Rubaiy, Ludlow, Bon, & Beech, 2017; Rubaiy, Ludlow, Henrot, et al., 2017). […]
structure (smiles),measurement,setting,value
Cn1c(=O)n(CCCO)c(=O)c2c1nc(Oc1ccc(Cl)c(OC(F)(F)F)c1)n2Cc1ccc(Cl)cc1 [AM237],"Hill slope, inhibition of EA response",,−0.78
same,Effect of pretreatment on basal [Ca2+]i,0.3–300 nM AM237,did not affect
same,Activation upon acute administration ([Ca2+]i),3-300 nM AM237,lack of activation
